Assay results from patent publication EP1282604B1, “SUBSTITUTED CAPROLACTAM CARBONATES AND ETHERS AND THEIR USE AS ANTI-TUMOR AGENTS” (Novartis AG, priority 2000, dated 2001).
Read-outs that look alike come from different tables or passages of the source.

Key:
HCT-116 colon carcinoma = test: Anchorage Dependent Growth Monolayer Assay (ADGMA), MTS readout; type: cell-based; settings: 3-day exposure, HCT-116 cells, read-out: IC50 values (average ± S.D.) HCT-116
From the text: (§1) As indicated above, all of the compounds of formula I, and their corresponding pharmaceutically acceptable acid addition salts, are anti-tumor agents and are, therefore, useful in inhibiting the growth of various lymphomas, sarcomas, carcinomas, myelomas, and leukemia cell lines. […] This assay was adapted from the 60 cell line assay used by the National Cancer Institute (NCl) with the following modifications: 1) cell lines representative for the important tumor types, viz., MDA-MB-435 human breast, A549 non-small cell lung, H1299 lung, HCT-116 colon and PC-3 prostate carcinomas, and U2OS osteosarcomas were utilized; and 2) a tetrazolium derivative, viz., 3-(4,5-dimethylthiazol-2-yl)-5-(3-carboxymethoxyphenyl)-2-(4-sulfophenyl)-2H-tetrazolium, inner salt (MTS), was utilized to determine cell density.
(§2) The ADGMA compares the number of viable cells following a 3-day exposure to a test compound relative to a number of cells present at the time the test compound was added. […] The absorbance at 490 nm (A490) of the formazan derivative is proportional to the number of viable cells. The IC50 for a test compound is the concentration of compound required to reduce the final cell number to 50% of the final control cell number. If cell proliferation is inhibited, the assay further defines compounds as cytostatic (cell number after 3-day compound incubation >cell number at time of compound addition) or cytotoxic (cell number after 3-day compound incubation <cell number at time of compound addition).
(§3) The H1299 lung, HCT-116 colon, and PC-3 prostate carcinoma cell lines, and U2OS osteosarcoma cell line were obtained from the American Type Culture Collection (ATCC) and used between passages 4-20 following thawing. H1299 and HCT-116 cells were maintained in RPMI 1640 containing 10% FBS, 100 units/mL penicillin and 100 µg/mL streptomycin; PC-3 cells were maintained in Kahn's Modification containing 10% FBS, 100 units/mL penicillin and 100 µg/mL streptomycin; and U2OS cells were maintained in DMEM containing 10% FBS, 100 units/mL penicillin and 100 µg/mL streptomycin.
(§4) Cell lines are trypsinized and counted using a Coulter counter to determine plating densities. Cells are then plated in their respective maintenance media (100 µL/well) in 96 well plates at the following densities: MDA-MB-435 and U2OS, 3,000 cells/well; A549 and HCT-116, 700 cells/well; H1299, 1,000 cells/well; and PC-3, 2500 cells/well. The number of cells plates as determined in preliminary experiments, results in cell densities of 75-90% of confluency by 4 days after plating. Initial cell densities, assayed one day after plating, are roughly 0.15-0.20 absorbance units greater than the media blank. Ninety-six well plates are seeded on day 0 and the test compounds are added on day 1. A control plate is created for each cell line that receives media only in row A and cells in row B. One day following plating, test compounds are added (in a final volume of 100 µL) to the test plates. Control plates receive 10 µL MTS mixture (prepared fresh on day of addition to cell plates at a ratio of 10 µL of a 0.92 mg/mL solution of PMS to a 190 µL of a 2 mg/mL solution of MTS) and 100 µL media. A490 of control plates is read 4 h after MTS addition to determine initial cell density values for each cell line. Three days after addition of test compound, 10 µL/well of MTS mixture is added to the test plates and A490 is read 4 h later. A490 values for wells containing cells are corrected for media absorbance, then normalized to initial density readings to determine percent net growth. IC50 values are determined from graphs of percent net growth as a function of compound concentration. Percent net growth is calculated as (Cell + Drug A490 - Initial A490/Cell + Drug Vehicle A490 - Initial A490) x 100%.

U2OS osteosarcoma = test: as above; type: cell-based; settings: 3-day exposure, U2OS cells, read-out: IC50 values (average ± S.D.) U2OS
From the text: as §1, §2, §3, §4

H1299 lung carcinoma = test: as above; type: cell-based; settings: 3-day exposure, H1299 cells, read-out: IC50 values (average ± S.D.) H1299
From the text: as §1, §2, §3, §4

A549 tumor xenografts = test: Human tumor xenograft growth inhibition in athymic nude mice; type: in vivo; settings: 5X/week for 2 weeks; for Δ MTV / %T/C: recorded on day 24; for %T/C: * = p<0.05
Experimental: (§5) Utilizing this model, one can measure the ability of test compounds to inhibit the growth of human tumor xenografts growing subcutaneously (s.c.) in athymic nude mice. The histologic tumor type employed was MDA-MB-435 breast carcinoma for Ex.1 and 7 and A549 non-small cell lung carcinoma for Ex. 1-3.
A549 non-small cell lung carcinoma: Treatments were started 17 d post-implantation (1 x 10^7 cells/mouse), when a mean tumor volume of approximately 120 mm^3 was reached. Ex. 1-3 were administered iv on days 17-21 (followed by 2 d rest, then a second cycle of treatment on days 24-28). Total daily doses of 10 or 30 µmol/kg were administered as a single injection. Data in this table were recorded on day 24, 3 d after the last treatment of the first cycle. An asterisk (*) indicates p < 0.05 using a one-tailed Student's t-Test.
(§6) Toxicity was monitored by recording average group body weights twice weekly, and by daily observation of general health. Efficacy was monitored by taking measurements of tumor length, width, and depth weekly using digital calipers coupled to automated data collectors. Mean tumor volume (MTV) at initiation of therapy was subtracted from final MTV in order to express the actual tumor growth during treatment (A MTV). Anti-tumor activity was expressed as %T/C (A MTV of treated group ÷ Δ MTV of control group X100%). Statistical significance was evaluated using a one-tailed Student's t-test (p<0.05).

[1] = tested on: MDA-MB-435 human breast carcinoma; test: Anchorage Dependent Growth Monolayer Assay (ADGMA), MTS readout; type: cell-based; settings: 3-day exposure, MDA-MB-435 cells, read-out: IC50 values (average ± S.D.) MDA-MB-435
From the text: as §1, §2
(§7) The MDA-MB-435 human breast carcinoma and the A549 non-small cell lung carcinoma lines were obtained from the American Type Culture Collection (ATCC) and used between passages 4-20 following thawing. MDA-MB-435 human breast carcinoma and A549 non-small cell lung carcinoma cells were maintained and plated in DME/F12 medium containing 10% fetal bovine serum, 15 mM HEPES (pH=7.4), 100 units/mL penicillin, and 100 µg/mL streptomycin.
as §4

[2] = tested on: MDA-MB-435 tumor xenografts; test: Human tumor xenograft growth inhibition in athymic nude mice; type: in vivo; settings: 3X/week for 3 weeks; for %T/C: * = p<0.05
Experimental: as §5
MDA-MB-435 human breast carcinoma: Treatments were started 15 d post implantation (3 x 10^6 cells/mouse), when a mean tumor volume of approximately 45 mm^3 was reached. Ex.1 and 7 were administered iv at three times per week for 3 weeks (days 15, 17, 20, 22, 24, 27, 29, and 31), at 3.3, 10, and 33 µmol/kg. Doxorubicin was administered iv at 2 mg/kg using the same schedule. Each data point represents tumor growth (mean ± SEM), or body weight (mean), with an initial group size of n = 8, from a representative experiment performed twice. An asterisk (*) indicates p < 0.05 using a one-tailed Student's t-test.
as §6

[3] = tested on: A549 non-small cell lung carcinoma; test: Anchorage Dependent Growth Monolayer Assay (ADGMA), MTS readout; type: cell-based, human; settings: 3-day exposure, A549 cells, read-out: IC50 values (average ± S.D.) A549
From the text: as §1, §2, §7, §4

| SMILES | IC50 (HCT-116 colon carcinoma; Homo sapiens, 72 h) [µM] | IC50 (U2OS osteosarcoma; Homo sapiens, 72 h) [µM] | IC50 (H1299 lung carcinoma; Homo sapiens, NCI-H1299, 72 h) [µM] | Dead/Total (A549 tumor xenografts; 10 µmol/kg iv daily) | Δ MTV (A549 tumor xenografts; 10 µmol/kg iv daily) [mm^3] | %T/C (A549 tumor xenografts; 10 µmol/kg iv daily) | Dead/Total (A549 tumor xenografts; 30 µmol/kg iv daily) | Δ MTV (A549 tumor xenografts; 30 µmol/kg iv daily) [mm^3] | %T/C (A549 tumor xenografts; 30 µmol/kg iv daily) | IC50 ([1]; Homo sapiens, 72 h) [µM] | Dead/Total ([2]; 3.3 µmol/kg iv) | Δ MTV ([2]; 3.3 µmol/kg iv) [mm^3] | %T/C ([2]; 3.3 µmol/kg iv) | Dead/Total ([2]; 10 µmol/kg iv) | Δ MTV ([2]; 10 µmol/kg iv) [mm^3] | %T/C ([2]; 10 µmol/kg iv) [%] | Dead/Total ([2]; 33 µmol/kg iv) | Δ MTV ([2]; 33 µmol/kg iv) [mm^3] | %T/C ([2]; 33 µmol/kg iv) | IC50 ([3]; Homo sapiens, 72 h) [µM] | further results |
| --- | --- | --- | --- | --- | --- | --- | --- | --- | --- | --- | --- | --- | --- | --- | --- | --- | --- | --- | --- | --- | --- |
| CCCCCCCCCCOC(=O)O[C@@H]1CC[C@H](NC(=O)[C@H](OC)[C@H](O)[C@@H](O)[C@H](O)/C=C/C(C)(C)C)C(=O)NC1 [Ex. 1, (2R, 3R, 4S, 5R, 6E)-3,4,5-trihydroxy-2-methoxy-8,8-dimethyl-N-[(3S, 6R)-hexahydro-2-oxo-6-([[decyloxy]carbonyl]oxy)-2H-azepin-3-yl]non-6-enonamide] | 0.53 ± 0.35 | > 1 | 0.57 ± 0.22 | 0/8 | 95 | 73% | 0/8 | 39 | 30* % | 0.21 ± 0.14 | 0/8 | 132 | 74* % | 0/8 | 162 | 90 | 0/8 | 79 | 44* % |  |  |
| CO[C@@H](C(=O)N[C@H]1CC[C@@H](OC(=O)OCC(C)(C)C)CNC1=O)[C@H](O)[C@@H](O)[C@H](O)/C=C/C(C)(C)C [Ex. 5, (2R, 3R, 4S, 5R, 6E)-3,4,5-trihydroxy-2-methoxy-8,8-dimethyl-N-[(3S, 6R)-hexahydro-2-oxo-6-([[2,2-dimethylpropoxy]carbonyl]oxy)-2H-azepin-3-yl]non-6-enonamide] | 0.27 ± 0.1 | 0.62 ± 0.16 | 0.36 ± 0.12 |  |  |  |  |  |  | 0.12 ± 0.02 |  |  |  |  |  |  |  |  |  | 0.138 ± 0.008 |  |
| CO[C@@H](C(=O)N[C@H]1CC[C@@H](OC(=O)OCCc2ccccc2)CNC1=O)[C@H](O)[C@@H](O)[C@H](O)/C=C/C(C)(C)C [Ex. 3, (2R, 3R, 4S, 5R, 6E)-3,4,5-trihydroxy-2-methoxy-8,8-dimethyl-N-[(3S, 6R)-hexahydro-2-oxo-6-([[2-phenylethoxy]carbonyl]oxy)-2H-azepin-3-yl]non-6-enonamide] | 0.16 ± 0.03 | 0.31 ± 0.04 | 0.33 ± 0.27 | 0/8 | 106 | 82% | 0/8 | 55 | 42* % | 0.08 ± 0.03 |  |  |  |  |  |  |  |  |  | 0.132 ± 0.02 |  |
| CCCCCCCCCCCOCC(=O)O[C@@H]1CC[C@H](NC(=O)[C@H](OC)[C@H](O)[C@@H](O)[C@H](O)/C=C/C(C)(C)C)C(=O)NC1 [Ex. 7, (2R, 3R, 4S, 5R, 6E)-3,4,5-trihydroxy-2-methoxy-8,8-dimethyl-N-[(3S, 6R)-hexahydro-2-oxo-6-([[undecyloxy]acetyl]oxy)-2H-azepin-3-yl]non-6-enonamide] |  |  |  |  |  |  |  |  |  |  | 0/8 | 165 | 102% | 0/8 | 103 | 64 | 0/8 | 48 | 30* % |  |  |
| CCCCCOC(=O)O[C@@H]1CC[C@H](NC(=O)[C@H](OC)[C@H](O)[C@@H](O)[C@H](O)/C=C/C(C)(C)C)C(=O)NC1 [Ex. 2, (2R, 3R, 4S, 5R, 6E)-3,4,5-trihydroxy-2-methoxy-8,8-dimethyl-N-[(3S, 6R)-hexahydro-2-oxo-6-([[pentyloxy]carbonyl]oxy)-2H-azepin-3-yl]non-6-enonamide] |  |  |  | 0/8 | 42 | 32* % | 0/8 | 60 | 46* % |  |  |  |  |  |  |  |  |  |  |  | IC50 (HCT-116 colon carcinoma): 0.17 ± 0.1 µM; IC50 (U2OS osteosarcoma): 0.09 ± 0.03 µM; IC50 (H1299 lung carcinoma): 0.21 ± 0.17 µM; IC50 [1]: 0.07 ± 0.02 µM; IC50 [3]: 0.117 ± 0.02 µM |
| CO[C@@H](C(=O)N[C@H]1CC[C@@H](OC(=O)OC2CCCCC2)CNC1=O)[C@H](O)[C@@H](O)[C@H](O)/C=C/C(C)(C)C [Ex. 6, (2R, 3R, 4S, 5R, 6E)-3,4,5-trihydroxy-2-methoxy-8,8-dimethyl-N-[(3S, 6R)-hexahydro-2-oxo-6-([[cyclohexyloxy]carbonyl]oxy)-2H-azepin-3-yl]non-6-enonamide] | 0.4 ± 0.12 | 0.77 ± 0.4 | 0.57 ± 0.29 |  |  |  |  |  |  | 0.35 ± 0.11 |  |  |  |  |  |  |  |  |  | 0.441 ± 0.063 |  |
